According to the supplement of paper PMC10307832:

Experiments:
Assay in all cases: relative viability (nuclei count vs DMSO), 5 days (fraction); higher = more cells survive
RO-3306 + Crizotinib = compound: C1=CC2=C(C=CC(=C2)C=C3C(=O)NC(=NCC4=CC=CS4)S3)N=C1 [RO-3306] + C[C@@H](Oc1cc(-c2cnn(C3CCNCC3)c2)cnc1N)c1c(Cl)ccc(F)c1Cl [Crizotinib] (partner 1 µM)
Method in brief: (§1)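 For relative viability, nuclei counts in treated wells were divided by those in vehicle wells. Lung cancer cell lines had been pin-tool dosed in 1536-well plates the day after seeding and cultured for 5 days, then fixed and stained in one step (final 0.05% Triton X-100, 1% formaldehyde, 1 ug/ml Hoechst) and imaged at 4×. Doses were one drug alone or a fixed anchor-drug dose plus five library-drug doses (not always all listed) in √10 steps, and values are duplicate-plate medians.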

RO-3306 + Phenformin = compound: C1=CC2=C(C=CC(=C2)C=C3C(=O)NC(=NCC4=CC=CS4)S3)N=C1 [RO-3306] + N=C(N)NC(=N)NCCc1ccccc1 [Phenformin] (partner 250 µM)
Method in brief: as §1

[1] = compound: O=S(=O)(c1ccccc1)N(CC(F)(F)F)c1ccc(C(O)(C(F)(F)F)C(F)(F)F)cc1 + CS(=O)(=O)CCNCc1ccc(-c2ccc3ncnc(Nc4ccc(OCc5cccc(F)c5)c(Cl)c4)c3c2)o1 [Lapatinib] (partner 2 µM)
Method in brief: as §1

[2] = compound: O=S(=O)(c1ccccc1)N(CC(F)(F)F)c1ccc(C(O)(C(F)(F)F)C(F)(F)F)cc1 + C[C@]1(O)C[C@@H](c2nc(-c3ccc4ccc(-c5ccccc5)nc4c3)c3c(N)nccn32)C1 [Linsitinib] (partner 1 µM)
Method in brief: as §1

[3] = compound: O=S(=O)(c1ccccc1)N(CC(F)(F)F)c1ccc(C(O)(C(F)(F)F)C(F)(F)F)cc1 + O=C(c1cc(Cc2n[nH]c(=O)c3ccccc23)ccc1F)N1CCN(C(=O)C2CC2)CC1 [Olaparib] (partner 8 µM)
Method in brief: as §1

UMC-11
relative viability (RO-3306 + Crizotinib; first compound 0.01 µM): 0.49 | relative viability (RO-3306 + Crizotinib; first compound 0.03162 µM): 0.555 | relative viability (RO-3306 + Crizotinib; first compound 0.1 µM): 0.62 | relative viability (RO-3306 + Crizotinib; first compound 0.3162 µM): 0.906 | relative viability (RO-3306 + Crizotinib; first compound 1 µM): 0.48 | relative viability (RO-3306 + Phenformin; first compound 0.01 µM): 0.351 | relative viability (RO-3306 + Phenformin; first compound 0.03162 µM): 0.291 | relative viability (RO-3306 + Phenformin; first compound 0.1 µM): 0.3 | relative viability (RO-3306 + Phenformin; first compound 0.3162 µM): 0.366 | relative viability (RO-3306 + Phenformin; first compound 1 µM): 0.315 | relative viability ([1]; first compound 0.8 µM): 1.19 | relative viability ([1]; first compound 2.53 µM): 0.966 | relative viability ([1]; first compound 8 µM): 1.22 | relative viability ([2]; first compound 0.8 µM): 1.13 | relative viability ([2]; first compound 2.53 µM): 1.08 | relative viability ([2]; first compound 8 µM): 1.13 | relative viability ([3]; first compound 0.8 µM): 0.355 | relative viability ([3]; first compound 2.53 µM): 0.459 | relative viability ([3]; first compound 8 µM): 0.379
